Data: patent US10093630B2, “Pyrazole compounds and methods of making and using same” (ABIDE THERAPEUTICS, INC., priority 2014, dated 2018)
Like-named read-outs stand apart in the source and are kept apart here.

Key:
Assay in all cases: In vitro competitive activity-based protein profiling (gel-based, FP-Rh or HT-01 probe)
Format in all cases: biochemical
ABHD6 = target: T1, ABHD6 (Mus musculus, UniProt Q8R2Y0); conditions: for inhibition at 1 µM: 1 μM inhibitor, read-out: % Inhibition at 1 μM, C = ABHD6; for inhibition at 10 µM: 10 μM inhibitor, read-out: % Inhibition at 10 μM, C = ABHD6
T1 construct: Proteomes (mouse brain membrane fraction or cell lysates); from tissue; host or cells: mouse brain membrane fraction (or cell lysates, not specified)
T1 sequence (Q8R2Y0 1-336): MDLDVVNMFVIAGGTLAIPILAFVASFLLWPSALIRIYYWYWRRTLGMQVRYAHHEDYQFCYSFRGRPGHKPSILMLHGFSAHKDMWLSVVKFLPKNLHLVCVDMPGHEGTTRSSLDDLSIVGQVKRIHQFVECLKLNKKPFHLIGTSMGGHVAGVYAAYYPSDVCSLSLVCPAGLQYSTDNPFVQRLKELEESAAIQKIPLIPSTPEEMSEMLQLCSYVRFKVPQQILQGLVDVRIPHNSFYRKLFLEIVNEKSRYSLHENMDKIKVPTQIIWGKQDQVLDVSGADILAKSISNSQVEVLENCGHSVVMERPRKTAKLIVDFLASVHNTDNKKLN
Summary of the method: (§1)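 Competitive labelling format in mouse brain membrane fractions or lysates at 1.0 mg/mL total protein: compounds preincubate 30 min at 37° C, activity probe FP-Rh or HT-01 then reacts 30 min at 37° C. Gel band fluorescence gives target activity.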

FAAH = target: T2, FAAH (Mus musculus, UniProt O08914); conditions: for inhibition at 10 µM: 10 μM inhibitor, read-out: % Inhibition at 10 μM, B = FAAH; for inhibition at 1 µM: 1 μM inhibitor, read-out: % Inhibition at 1 μM, B = FAAH
T2 construct: Proteomes (mouse brain membrane fraction or cell lysates); from tissue; host or cells: mouse brain membrane fraction (or cell lysates, not specified)
T2 sequence (O08914 1-579): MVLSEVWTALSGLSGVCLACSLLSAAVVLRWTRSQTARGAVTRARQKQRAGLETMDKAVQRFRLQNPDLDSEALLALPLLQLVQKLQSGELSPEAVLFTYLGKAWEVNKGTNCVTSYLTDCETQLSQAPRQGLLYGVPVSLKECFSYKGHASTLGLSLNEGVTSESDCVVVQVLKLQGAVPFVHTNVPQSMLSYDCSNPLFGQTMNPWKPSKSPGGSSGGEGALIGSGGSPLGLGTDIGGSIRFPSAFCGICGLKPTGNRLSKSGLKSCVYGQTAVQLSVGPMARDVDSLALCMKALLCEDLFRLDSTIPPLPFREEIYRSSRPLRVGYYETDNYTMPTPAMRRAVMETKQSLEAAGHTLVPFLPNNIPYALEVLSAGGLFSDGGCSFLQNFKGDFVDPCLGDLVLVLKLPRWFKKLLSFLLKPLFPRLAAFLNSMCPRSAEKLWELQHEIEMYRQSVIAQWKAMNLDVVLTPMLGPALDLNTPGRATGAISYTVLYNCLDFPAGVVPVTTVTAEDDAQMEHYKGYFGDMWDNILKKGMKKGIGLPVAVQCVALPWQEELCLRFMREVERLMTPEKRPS
Summary of the method: as §1

MAGL = target: T3, MAGL (Mus musculus, UniProt O35678); conditions: for inhibition at 10 µM: 10 μM inhibitor; for inhibition at 1 µM: 1 μM inhibitor
T3 construct: Proteomes (mouse brain membrane fraction or cell lysates); from tissue; host or cells: mouse brain membrane fraction (or cell lysates, not specified)
T3 sequence (O35678 1-303): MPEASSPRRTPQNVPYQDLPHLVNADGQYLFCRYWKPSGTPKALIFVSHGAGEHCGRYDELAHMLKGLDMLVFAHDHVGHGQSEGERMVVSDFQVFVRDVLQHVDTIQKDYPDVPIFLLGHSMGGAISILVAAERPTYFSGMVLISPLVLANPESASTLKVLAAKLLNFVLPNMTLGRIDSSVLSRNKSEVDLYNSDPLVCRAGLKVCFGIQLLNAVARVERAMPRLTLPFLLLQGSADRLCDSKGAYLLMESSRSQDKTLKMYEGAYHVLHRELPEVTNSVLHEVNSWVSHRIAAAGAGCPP
Summary of the method: as §1

PLA2G7 = target: T4, PLA2G7 (Mus musculus, UniProt Q60963); conditions: for inhibition at 1 µM: 1 μM inhibitor, read-out: % Inhibition at 1 μM, D = PLA2G7; for inhibition at 10 µM: 10 μM inhibitor, read-out: % Inhibition at 10 μM, D = PLA2G7; for IC50: mouse brain membrane fraction or cell lysates, 30 min preincubation at 37° C.
T4 construct: Proteomes (mouse brain membrane fraction or cell lysates); from tissue; host or cells: mouse brain membrane fraction (or cell lysates, not specified)
T4 sequence (Q60963 22-440): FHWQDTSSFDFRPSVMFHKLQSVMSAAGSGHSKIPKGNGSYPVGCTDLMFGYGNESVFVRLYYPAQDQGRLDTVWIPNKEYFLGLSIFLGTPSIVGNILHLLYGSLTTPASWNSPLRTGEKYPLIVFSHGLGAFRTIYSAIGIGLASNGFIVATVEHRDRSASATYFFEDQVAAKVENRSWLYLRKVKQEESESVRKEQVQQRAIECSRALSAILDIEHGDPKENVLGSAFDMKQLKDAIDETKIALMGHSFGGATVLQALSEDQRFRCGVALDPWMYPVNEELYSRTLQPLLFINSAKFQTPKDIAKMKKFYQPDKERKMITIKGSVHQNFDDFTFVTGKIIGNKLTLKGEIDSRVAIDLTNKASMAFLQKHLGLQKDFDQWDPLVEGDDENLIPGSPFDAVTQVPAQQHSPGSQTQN
Summary of the method: as §1

[1] = mouse brain membrane fraction or cell lysates, 30 min preincubation at 37° C., read-out: Mouse (IC50 value, nM) ABHD6
[2] = mouse brain membrane fraction or cell lysates, 30 min preincubation at 37° C., read-out: Mouse (IC50 value, nM) FAAH
[3] = mouse brain membrane fraction or cell lysates, 30 min preincubation at 37° C., read-out: Mouse (IC50 value, nM) MAGL

Row | inhibition at 1 µM (ABHD6) [%] | inhibition at 10 µM (ABHD6) [%] | inhibition at 10 µM (FAAH) [%] | inhibition at 10 µM (MAGL) [%] | inhibition at 1 µM (PLA2G7) [%] | inhibition at 10 µM (PLA2G7) [%] | IC50 (ABHD6; [1]) [nM] | inhibition at 1 µM (FAAH) [%] | IC50 (FAAH; [2]) [nM] | inhibition at 1 µM (MAGL) [%] | IC50 (MAGL; [3]) [nM] | IC50 (PLA2G7) [nM] | inhibition at 1 µM (ABHD6; gel-based competitive ABPP) [%] | inhibition at 1 µM (FAAH; gel-based competitive ABPP) [%] | inhibition at 1 µM (MAGL; gel-based competitive ABPP) [%] | inhibition at 1 µM (PLA2G7; gel-based competitive ABPP) [%] | SMILES | IC50 (ABHD6) [nM] | IC50 (FAAH) [nM] | IC50 (MAGL) [nM]
1 | 25 to 75 | > 75 | < 25 | < 25 | < 25 | 25 to 75 | – | – | – | – | – | – | – | – | – | – | O=C(N1CCCC1)n1cc(-c2ccc(-c3ccccc3)cc2)cn1 [Example 106, (4-([1,1′-Biphenyl]-4-yl)-1H-pyrazol-1-yl)(pyrrolidin-1-yl)methanone] | – | – | –
2 | – | < 25 | < 25 | < 25 | – | < 25 | – | – | – | – | – | – | – | – | – | – | CN(CCN(C)S(C)(=O)=O)C(=O)n1cc(Cl)cn1 [Example 198, 4-Chloro-N-methyl-N-(2-(N-methylmethylsulfonamido)ethyl)-1H-pyrazole-1-carboxamide] | – | – | –
3 | 25 to 75 | – | – | – | < 25 | – | – | > 75 | – | > 75 | – | – | – | – | – | – | CCN(Cc1cccc(N2CCOCC2)c1)C(=O)n1cc(C#N)cn1 [Example 242, 4-Cyano-N-ethyl-N-(3-morpholinobenzyl)-1H-pyrazole-1-carboxamide] | – | – | –
4 | < 25 | 25 to 75 | > 75 | < 25 | < 25 | – | – | 25 to 75 | – | < 25 | – | – | – | – | – | – | CN(CCN(C)S(C)(=O)=O)C(=O)n1cc(C#N)cn1 [Example 197, 4-Cyano-N-methyl-N-(2-(N-methylmethylsulfonamido)ethyl)-1H-pyrazole-1-carboxamide] | – | – | –
5 | – | – | – | – | – | – | – | – | – | – | – | – | > 75 | > 75 | > 75 | < 25 | N#Cc1cnn(C(=O)N2CCN(Cc3cccc(Oc4ccccc4)c3)CC2)c1 [Example 295, 1-(4-(3-Phenoxybenzyl)piperazine-1-carbonyl)-1H-pyrazole-4-carbonitrile] | – | – | –
6 | 25 to 75 | > 75 | 25 to 75 | < 25 | < 25 | > 75 | – | – | – | – | – | – | – | – | – | – | O=C(c1cnn(C(=O)N2CCN(Cc3nccs3)CC2)c1)N1CCOCC1 [Example 55, (4-(Morpholine-4-carbonyl)-1H-pyrazol-1-yl)(4-(thiazol-2-ylmethyl)piperazin-1-yl)methanone] | – | – | –

More lines, now with the values behind:

Row | SMILES | inhibition at 1 µM (ABHD6) [%] | inhibition at 10 µM (ABHD6) [%] | inhibition at 10 µM (FAAH) [%] | inhibition at 10 µM (MAGL) [%] | inhibition at 1 µM (PLA2G7) [%] | inhibition at 10 µM (PLA2G7) [%] | IC50 (ABHD6; [1]) [nM] | inhibition at 1 µM (FAAH) [%] | IC50 (FAAH; [2]) [nM] | inhibition at 1 µM (MAGL) [%] | IC50 (MAGL; [3]) [nM] | IC50 (PLA2G7) [nM] | inhibition at 1 µM (ABHD6; gel-based competitive ABPP) [%] | inhibition at 1 µM (FAAH; gel-based competitive ABPP) [%] | inhibition at 1 µM (MAGL; gel-based competitive ABPP) [%] | inhibition at 1 µM (PLA2G7; gel-based competitive ABPP) [%] | IC50 (ABHD6) [nM] | IC50 (FAAH) [nM] | IC50 (MAGL) [nM]
7 | Cc1cc(-c2ccccc2)ccc1CN1CCN(C(=O)n2cc(C#N)cn2)CC1 [Example 138, 1-(4-((3-methylbiphenyl-4-yl)methyl)piperazine-1-carbonyl)-1H-pyrazole-4-carbonitrile] | > 75 | > 75 | > 75 | > 75 | > 75 | > 75 | < 100 | > 75 | < 100 | > 75 | < 100 | < 100 | – | – | – | – | – | – | –
8 | CCN(Cc1cccc(C)c1)C(=O)n1cc(C)cn1 [Example 248, N-ethyl-4-methyl-N-(3-methylbenzyl)-1H-pyrazole-1-carboxamide] | – | – | – | – | – | – | – | – | – | – | – | – | < 25 | < 25 | < 25 | < 25 | – | – | –
9 | O=C(N1CCN(Cc2cccc(C(F)(F)F)c2)CC1)n1cc(C(F)(F)F)cn1 [Example 272, (4-(Trifluoromethyl)-1H-pyrazol-1-yl)(4-(3-(trifluoromethyl)benzyl)piperazin-1-yl)methanone] | – | – | – | – | – | – | < 100 | – | < 100 | – | < 100 | 100 to 1000 | > 75 | > 75 | > 75 | > 75 | – | – | –
10 | O=C(N1CCN(Cc2ccc(Cl)c(Cl)c2)CC1)n1cc(Cl)cn1 [Example 211, (4-Chloro-1H-pyrazol-1-yl)(4-(3,4-dichlorobenzyl)piperazin-1-yl)methanone] | > 75 | > 75 | > 75 | > 75 | < 25 | > 75 | < 100 | > 75 | < 100 | > 75 | < 100 | – | – | – | – | – | – | – | –
11 | O=C(NCCCCc1ccccc1)n1cccn1 [Example 34, N-(4-Phenylbutyl)-1H-pyrazole-1-carboxamide] | – | < 25 | < 25 | < 25 | – | < 25 | – | – | – | – | – | – | – | – | – | – | – | – | –
12 | O=C(N1CCCC1)n1cc(-c2ccccc2)cn1 [Example 103, (4-Phenyl-1H-pyrazol-1-yl)(pyrrolidin-1-yl)methanone] | – | < 25 | > 75 | < 25 | – | > 75 | – | – | – | – | – | – | – | – | – | – | – | – | –
13 | O=C(N1CCN(Cc2ccccc2)CC1)n1cc(Cl)cn1 [Example 186, (4-Benzylpiperazin-1-yl)(4-chloro-1H-pyrazol-1-yl)methanone] | > 75 | > 75 | > 75 | > 75 | < 25 | > 75 | – | > 75 | – | > 75 | – | > 1000 | – | – | – | – | < 100 | 100 to 1000 | < 100
14 | COc1ccccc1N1CCN(C(=O)n2cc(C(F)(F)F)cn2)CC1 [Example 233, (4-(2-Methoxyphenyl)piperazin-1-yl)(4-(trifluoromethyl)-1H-pyrazol-1-yl)methanone] | > 75 | > 75 | > 75 | > 75 | > 75 | > 75 | < 100 | > 75 | < 100 | > 75 | < 100 | < 100 | – | – | – | – | – | – | –
15 | CCN(Cc1ccc(N2CCOCC2)cc1)C(=O)n1cc(C#N)cn1 [Example 263, 4-Cyano-N-ethyl-N-(4-morpholinobenzyl)-1H-pyrazole-1-carboxamide] | – | – | – | – | – | – | > 1000 | – | < 100 | – | 100 to 1000 | > 1000 | 25 to 75 | > 75 | > 75 | < 25 | – | – | –
16 | Cc1ccccc1CN1CCN(C(=O)n2cc(C(F)(F)F)cn2)CC1 [Example 277, (4-(2-Methylbenzyl)piperazin-1-yl)(4-(trifluoromethyl)-1H-pyrazol-1-yl)methanone] | – | – | – | – | – | – | – | – | – | – | – | – | > 75 | > 75 | > 75 | > 75 | – | – | –
